Results taken from patent publication US20260092071A1, “COMPOUNDS AND COMPOSITIONS AS SMARCA2/4 DEGRADERS AND USES THEREOF” (REGENTS OF THE UNIVERSITY OF MICHIGAN, priority 2022, published 2026).

Legend:
SMARCA2 = SMARCA2 (Homo sapiens, UniProt P51531); assay: HiBit assay in engineered HT1080 CRISPR knock-in cell, 6 hrs (B series), SMARCA2; type: cell-based; details: 6 hrs incubation; for DC50: read-out: SMARC A2 HT1080 HiBit DC50; for Dmax: HT-1080, HT1080 CRISPR knock-in cells, read-out: SMARC A2 HT1080 HiBit Dmax (%)
Chain of SMARCA2 (P51531 whole entry): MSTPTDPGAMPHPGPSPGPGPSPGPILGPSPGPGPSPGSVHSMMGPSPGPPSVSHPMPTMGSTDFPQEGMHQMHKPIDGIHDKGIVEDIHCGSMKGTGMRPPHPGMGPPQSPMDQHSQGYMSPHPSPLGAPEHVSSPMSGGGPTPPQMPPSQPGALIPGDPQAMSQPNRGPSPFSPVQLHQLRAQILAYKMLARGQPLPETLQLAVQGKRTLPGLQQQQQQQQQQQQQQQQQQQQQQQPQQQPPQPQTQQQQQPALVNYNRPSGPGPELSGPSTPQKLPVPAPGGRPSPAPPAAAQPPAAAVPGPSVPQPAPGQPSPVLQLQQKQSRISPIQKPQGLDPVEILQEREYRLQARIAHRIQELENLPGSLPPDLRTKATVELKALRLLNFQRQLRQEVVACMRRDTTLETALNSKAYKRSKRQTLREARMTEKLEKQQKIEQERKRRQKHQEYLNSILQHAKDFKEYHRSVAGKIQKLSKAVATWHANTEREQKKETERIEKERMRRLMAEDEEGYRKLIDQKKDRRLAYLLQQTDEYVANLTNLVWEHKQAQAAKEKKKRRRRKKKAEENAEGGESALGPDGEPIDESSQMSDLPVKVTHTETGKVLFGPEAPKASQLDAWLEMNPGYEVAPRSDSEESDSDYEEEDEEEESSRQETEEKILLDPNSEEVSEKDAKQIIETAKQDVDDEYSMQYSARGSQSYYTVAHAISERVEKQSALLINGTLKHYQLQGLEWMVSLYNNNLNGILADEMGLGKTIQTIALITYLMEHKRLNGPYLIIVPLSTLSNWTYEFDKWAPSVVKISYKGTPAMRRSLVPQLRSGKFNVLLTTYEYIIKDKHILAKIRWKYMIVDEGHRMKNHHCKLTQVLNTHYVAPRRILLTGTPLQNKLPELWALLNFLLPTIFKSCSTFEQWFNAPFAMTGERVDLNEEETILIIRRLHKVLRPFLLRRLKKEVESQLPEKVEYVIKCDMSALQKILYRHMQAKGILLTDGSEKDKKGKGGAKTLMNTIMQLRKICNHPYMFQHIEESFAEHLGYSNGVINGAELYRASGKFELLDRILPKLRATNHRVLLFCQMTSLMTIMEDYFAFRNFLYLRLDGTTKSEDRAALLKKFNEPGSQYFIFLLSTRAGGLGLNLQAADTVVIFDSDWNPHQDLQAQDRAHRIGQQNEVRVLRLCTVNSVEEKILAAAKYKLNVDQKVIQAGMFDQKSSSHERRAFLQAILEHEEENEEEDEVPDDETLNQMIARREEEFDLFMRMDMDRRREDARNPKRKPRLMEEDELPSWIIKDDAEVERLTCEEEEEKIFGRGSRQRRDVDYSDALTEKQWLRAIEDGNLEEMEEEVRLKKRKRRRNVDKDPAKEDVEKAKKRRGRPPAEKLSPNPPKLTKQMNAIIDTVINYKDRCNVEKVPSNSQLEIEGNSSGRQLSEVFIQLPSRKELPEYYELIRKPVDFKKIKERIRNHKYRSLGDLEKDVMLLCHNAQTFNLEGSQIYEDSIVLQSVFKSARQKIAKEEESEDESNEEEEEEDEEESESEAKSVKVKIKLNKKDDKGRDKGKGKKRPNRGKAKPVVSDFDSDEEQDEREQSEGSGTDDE
Method in brief: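 Protein abundance is measured in HiBiT-tagged HT1080 CRISPR knock-in cells after a 6 hr compound treatment (0.1% DMSO) by lytic Nano-Glo HiBiT luminescence.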

SMARCA4 = SMARCA4 (Homo sapiens, UniProt P51532); assay: HiBit assay in engineered HT1080 CRISPR knock-in cell, 6 hrs (B series), SMARCA4; type: cell-based; details: 6 hrs incubation; for DC50: read-out: SMARC A4 HT1080 HiBit DC50; for Dmax: HT-1080, HT1080 CRISPR knock-in cells, read-out: SMARC A4 HT1080 HiBit Dmax(%)
Chain of SMARCA4 (P51532 whole entry): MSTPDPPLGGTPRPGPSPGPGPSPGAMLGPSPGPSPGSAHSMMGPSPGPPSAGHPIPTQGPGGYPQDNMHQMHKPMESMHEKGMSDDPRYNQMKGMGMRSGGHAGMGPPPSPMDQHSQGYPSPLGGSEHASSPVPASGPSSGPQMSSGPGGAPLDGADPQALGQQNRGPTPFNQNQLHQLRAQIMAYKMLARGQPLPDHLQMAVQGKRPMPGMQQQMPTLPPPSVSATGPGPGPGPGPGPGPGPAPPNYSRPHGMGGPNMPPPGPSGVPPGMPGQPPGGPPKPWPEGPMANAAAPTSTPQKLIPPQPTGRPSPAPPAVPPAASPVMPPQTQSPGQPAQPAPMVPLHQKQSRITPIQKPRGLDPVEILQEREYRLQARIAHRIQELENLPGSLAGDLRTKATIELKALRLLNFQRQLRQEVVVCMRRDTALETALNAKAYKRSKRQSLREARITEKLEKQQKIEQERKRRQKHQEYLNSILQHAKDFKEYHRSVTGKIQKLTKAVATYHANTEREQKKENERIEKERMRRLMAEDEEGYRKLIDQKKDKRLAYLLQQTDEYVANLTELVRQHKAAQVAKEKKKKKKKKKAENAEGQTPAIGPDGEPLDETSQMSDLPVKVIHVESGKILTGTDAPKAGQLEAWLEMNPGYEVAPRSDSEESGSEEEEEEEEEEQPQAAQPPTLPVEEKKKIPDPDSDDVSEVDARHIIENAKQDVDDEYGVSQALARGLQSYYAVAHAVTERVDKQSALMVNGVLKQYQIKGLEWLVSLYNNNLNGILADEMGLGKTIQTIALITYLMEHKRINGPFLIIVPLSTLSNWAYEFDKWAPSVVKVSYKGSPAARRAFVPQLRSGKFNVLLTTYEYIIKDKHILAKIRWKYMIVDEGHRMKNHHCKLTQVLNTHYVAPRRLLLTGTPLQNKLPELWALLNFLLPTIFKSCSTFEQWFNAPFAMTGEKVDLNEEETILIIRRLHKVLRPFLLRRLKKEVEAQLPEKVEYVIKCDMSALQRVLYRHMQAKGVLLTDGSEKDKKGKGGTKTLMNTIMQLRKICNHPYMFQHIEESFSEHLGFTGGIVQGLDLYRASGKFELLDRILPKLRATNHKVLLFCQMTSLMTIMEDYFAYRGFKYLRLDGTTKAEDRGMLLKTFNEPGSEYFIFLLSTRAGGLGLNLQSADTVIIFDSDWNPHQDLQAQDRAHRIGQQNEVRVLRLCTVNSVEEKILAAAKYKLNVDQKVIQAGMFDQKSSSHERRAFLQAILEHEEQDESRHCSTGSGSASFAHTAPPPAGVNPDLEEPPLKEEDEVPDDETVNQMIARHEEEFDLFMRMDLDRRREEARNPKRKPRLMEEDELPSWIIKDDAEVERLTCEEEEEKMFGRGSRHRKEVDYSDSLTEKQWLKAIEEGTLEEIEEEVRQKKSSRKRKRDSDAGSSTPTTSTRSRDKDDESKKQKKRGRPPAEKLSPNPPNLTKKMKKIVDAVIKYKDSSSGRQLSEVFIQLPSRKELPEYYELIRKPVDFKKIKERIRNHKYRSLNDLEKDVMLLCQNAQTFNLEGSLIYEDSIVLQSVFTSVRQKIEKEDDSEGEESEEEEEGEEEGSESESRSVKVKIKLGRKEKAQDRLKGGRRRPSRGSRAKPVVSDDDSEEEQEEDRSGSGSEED
Method in brief: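 Using a 6 hr treatment window at 37° C and 5% CO2, tagged HT1080 knock-in cells were exposed to test compounds with DMSO vehicle held at 0.1%. Signal came from lytic LgBiT/substrate reagent added after incubation, with control wells lacking LgBiT, and was read as luminescence.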

Row | DC50 (SMARCA2; HT1080 CRISPR knock-in cells) [nM] | Dmax (SMARCA2) [%] | DC50 (SMARCA4; HT1080 CRISPR knock-in cells) [nM] | Dmax (SMARCA4) [%] | SMARC A2 HT1080 HiBit Dmax (%) (SMARCA2; HT1080 CRISPR knock-in cells) | SMARC A4 HT1080 HiBit Dmax(%) (SMARCA4; HT1080 CRISPR knock-in cells) | SMILES
1 | 100 to 500 | < 50 | > 1000 | < 50 | – | – | Cc1ncsc1-c1ccc([C@H](C)NC(=O)[C@@H]2C[C@@H](O)CN2C(=O)[C@@H](NC(=O)CCCCn2cc(-c3ccc4c(c3)-n3c(nc(=O)c5c(Cl)cccc53)C4(C)C)cn2)C(C)(C)C)cc1 [Compound B64, (2S,4R)-1-((S)-2-(5-(4-(4-chloro-7,7-dimethyl-5-oxo-5,7-dihydroindolo[1,2-a]quinazolin-10-yl)-1H-pyrazol-1-yl)pentanamido)-3,3-dimethylbutanoyl)-4-hydroxy-N-((S)-1-(4-(4-methylthiazol-5-yl)phenyl)ethyl)pyrrolidine-2-carboxamide]
2 | 100 to 500 | < 50 | > 1000 | < 50 | – | – | C[C@H](NC(=O)[C@@H]1C[C@@H](O)CN1C(=O)[C@@H](NC(=O)[C@H]1CC[C@H](C(=O)N2CCC(c3ccc4c(c3)-n3c(nc(=O)c5c(Cl)cccc53)C4(C)C)CC2)CC1)C(C)(C)C)c1ccc(-c2ncnn2C)cc1 [Compound B65, (2S,4R)-1-((S)-2-((1r,4S)-4-(4-(4-chloro-7,7-dimethyl-5-oxo-5,7-dihydroindolo[1,2-a]quinazolin-10-yl)piperidine-1-carbonyl)cyclohexane-1-carboxamido)-3,3-dimethylbutanoyl)-4-hydroxy-N-((S)-1-(4-(1-methyl-1H-1,2,4-triazol-5-yl)phenyl)ethyl)pyrrolidine-2-carboxamide]
3 | < 100 | > 90 | < 100 | > 90 | – | – | Cc1ncsc1-c1ccc([C@H](C)NC(=O)[C@@H]2C[C@@H](O)CN2C(=O)[C@H](C(C)C)n2cc(C3CCN(CCCN4CCC(c5ccc6c(c5)-n5c(nc(=O)c7c(Cl)cccc75)C6(C)C)CC4)CC3)nn2)cc1 [Compound B66, (2S,4R)-1-((S)-2-(4-(1-(3-(4-(4-chloro-7,7-dimethyl-5-oxo-5,7-dihydroindolo[1,2-a]quinazolin-10-yl)piperidin-1-yl)propyl)piperidin-4-yl)-1H-1,2,3-triazol-1-yl)-3-methylbutanoyl)-4-hydroxy-N—((S)-1-(4-(4-methylthiazol-5-yl)phenyl)ethyl)pyrrolidine-2-carboxamide]
4 | < 100 | > 90 | < 100 | 70 to 90 | – | – | Cc1ncsc1-c1ccc([C@H](C)NC(=O)[C@@H]2C[C@@H](O)CN2C(=O)[C@H](C(C)C)n2cc(C3CCN(CCN4CCC(c5ccc6c(c5)-n5c(nc(=O)c7c(Cl)cccc75)C6(C)C)CC4)CC3)nn2)cc1 [Compound B67, (2S,4R)-1-((S)-2-(4-(1-(2-(4-(4-chloro-7,7-dimethyl-5-oxo-5,7-dihydroindolo[1,2-a]quinazolin-10-yl)piperidin-1-yl)ethyl)piperidin-4-yl)-1H-1,2,3-triazol-1-yl)-3-methylbutanoyl)-4-hydroxy-N-((S)-1-(4-(4-methylthiazol-5-yl)phenyl)ethyl)pyrrolidine-2-carboxamide]
5 | < 100 | > 90 | 501 to 1000 | < 50 | – | – | Cc1ncsc1-c1ccc([C@H](C)NC(=O)[C@@H]2C[C@@H](O)CN2C(=O)[C@@H](n2cc([C@H](C)N3CCC(c4ccc5c(c4)-n4c(nc(=O)c6c(Cl)cccc64)C5(C)C)CC3)nn2)C(C)(C)C)cc1 [Compound B68, (2S,4R)-1-((S)-2-(4-((S)-1-(4-(4-chloro-7,7-dimethyl-5-oxo-5,7-dihydroindolo[1,2-a]quinazolin-10-yl)piperidin-1-yl)ethyl)-1H-1,2,3-triazol-1-yl)-3,3-dimethylbutanoyl)-4-hydroxy-N-((S)-1-(4-(4-methylthiazol-5-yl)phenyl)ethyl)pyrrolidine-2-carboxamide]
6 | < 100 | > 90 | 100 to 500 | < 50 | – | – | Cc1ncsc1-c1ccc([C@H](C)NC(=O)[C@@H]2C[C@@H](O)CN2C(=O)[C@@H](n2cc(CN3CCC(c4ccc5c(c4)-n4c(nc(=O)c6c(Cl)cccc64)C5(C)C)CC3)nn2)C(C)(C)C)cc1 [Compound B69, (2S,4R)-1-((S)-2-(4-((4-(4-chloro-7,7-dimethyl-5-oxo-5,7-dihydroindolo[1,2-a]quinazolin-10-yl)piperidin-1-yl)methyl)-1H-1,2,3-triazol-1-yl)-3,3-dimethylbutanoyl)-4-hydroxy-N-((S)-1-(4-(4-methylthiazol-5-yl)phenyl)ethyl)pyrrolidine-2-carboxamide]
7 | < 100 | > 90 | < 100 | < 50 | – | – | Cc1ncsc1-c1ccc([C@H](C)NC(=O)[C@@H]2C[C@@H](O)CN2C(=O)[C@@H](NC(=O)[C@H]2CC[C@H](CN3CCC(c4ccc5c(c4)-n4c(nc(=O)c6c(Br)cccc64)C5(C)C)CC3)CC2)C(C)(C)C)cc1 [Compound B70, (2S,4R)-1-((S)-2-((11,4S)-4-((4-(4-bromo-7,7-dimethyl-5-oxo-5,7-dihydroindolo[1,2-a]quinazolin-10-yl)piperidin-1-yl)methyl)cyclohexane-1-carboxamido)-3,3-dimethylbutanoyl)-4-hydroxy-N-((S)-1-(4-(4-methylthiazol-5-yl)phenyl)ethyl)pyrrolidine-2-carboxamide]
8 | 100 to 500 | 50 to 69 | > 1000 | < 50 | – | – | Cc1ncsc1-c1ccc([C@H](C)NC(=O)[C@@H]2C[C@@H](O)CN2C(=O)[C@@H](c2cc(OCCCn3cc(-c4ccc5c(c4)C(C)(C)c4nc(=O)c6c(Cl)cccc6n4-5)cn3)no2)C(C)C)cc1 [Compound B71, (2S,4R)-1-((R)-2-(3-(3-(4-(4-chloro-7,7-dimethyl-5-oxo-5,7-dihydroindolo[1,2-a]quinazolin-9-yl)-1H-pyrazol-1-yl)propoxy)isoxazol-5-yl)-3-methylbutanoyl)-4-hydroxy-N-((S)-1-(4-(4-methylthiazol-5-yl)phenyl)ethyl)pyrrolidine-2-carboxamide]
9 | < 100 | 50 to 69 | < 100 | < 50 | – | – | Cc1ncsc1-c1ccc([C@H](C)NC(=O)[C@@H]2C[C@@H](O)CN2C(=O)[C@@H](c2cc(OCCCn3cc(-c4ccc5c(c4)-n4c(nc(=O)c6c(Cl)cccc64)C5(C)C)cn3)no2)C(C)C)cc1 [Compound B72, (2S,4R)-1-((R)-2-(3-(3-(4-(4-chloro-7,7-dimethyl-5-oxo-5,7-dihydroindolo[1,2-a]quinazolin-10-yl)-1H-pyrazol-1-yl)propoxy)isoxazol-5-yl)-3-methylbutanoyl)-4-hydroxy-N-((S)-1-(4-(4-methylthiazol-5-yl)phenyl)ethyl)pyrrolidine-2-carboxamide]
10 | < 100 | > 90 | 100 to 500 | 70 to 90 | – | – | Cc1ncsc1-c1ccc([C@H](C)NC(=O)[C@@H]2C[C@@H](O)CN2C(=O)[C@H](C(C)C)n2cc(CCCCN3CCC(c4ccc5c(c4)-n4c(nc(=O)c6c(Cl)cccc64)C5(C)C)CC3)nn2)cc1 [Compound B73, (2S,4R)-1-((S)-2-(4-(4-(4-(4-chloro-7,7-dimethyl-5-oxo-5,7-dihydroindolo[1,2-a]quinazolin-10-yl)piperidin-1-yl)butyl)-1H-1,2,3-triazol-1-yl)-3-methylbutanoyl)-4-hydroxy-N-((S)-1-(4-(4-methylthiazol-5-yl)phenyl)ethyl)pyrrolidine-2-carboxamide]
11 | 100 to 500 | < 50 | > 1000 | < 50 | – | – | CC(C)C(C(=O)N1C[C@H](O)C[C@H]1C(=O)N[C@@H](C)c1ccc(-c2ncnn2C)cc1)c1cc(OCCN2CCC(c3ccc4c(c3)C(C)(C)c3nc(=O)c5c(Cl)cccc5n3-4)CC2)no1 (stereo partly drawn) [Compound B74, (2S,4R)-1-(2-(3-(2-(4-(4-chloro-7,7-dimethyl-5-oxo-5,7-dihydroindolo[1,2-a]quinazolin-9-yl)piperidin-1-yl)ethoxy)isoxazol-5-yl)-3-methylbutanoyl)-4-hydroxy-N-((S)-1-(4-(1-methyl-1H-1,2,4-triazol-5-yl)phenyl)ethyl)pyrrolidine-2-carboxamide]
12 | 100 to 500 | – | 100 to 500 | – | B (B (70-90% degradation)) | D (D (<50% degradation)) | CC(C)C(C(=O)N1C[C@H](O)C[C@H]1C(=O)N[C@@H](C)c1ccc(-c2ncnn2C)cc1)c1cc(OCCN2CCC(c3ccc4c(c3)C(C)(C)c3nc(=O)c5c(Cl)cccc5n3-4)CC2)no1 (stereo partly drawn) [Compound B75, (2S,4R)-1-(2-(3-(2-(4-(4-chloro-7,7-dimethyl-5-oxo-5,7-dihydroindolo[1,2-a]quinazolin-9-yl)piperidin-1-yl)ethoxy)isoxazol-5-yl)-3-methylbutanoyl)-4-hydroxy-N-((S)-1-(4-(1-methyl-1H-1,2,4-triazol-5-yl)phenyl)ethyl)pyrrolidine-2-carboxamide]
13 | 100 to 500 | 70 to 90 | 100 to 500 | < 50 | – | – | Cc1ncsc1-c1ccc([C@H](C)NC(=O)[C@@H]2C[C@@H](O)CN2C(=O)[C@@H](NC(=O)C2CCC(CN3CCC(c4ccc5c(c4)C(C)(C(F)(F)F)c4nc(=O)c6c(Cl)cccc6n4-5)CC3)CC2)C(C)(C)C)cc1 (stereo partly drawn) [Compound B76, (2S,4R)-1-((2S)-2-((1r,4S)-4-((4-(4-chloro-7-methyl-5-oxo-7-(trifluoromethyl)-5,7-dihydroindolo[1,2-a]quinazolin-9-yl)piperidin-1-yl)methyl)cyclohexane-1-carboxamido)-3,3-dimethylbutanoyl)-4-hydroxy-N-((S)-1-(4-(4-methylthiazol-5-yl)phenyl)ethyl)pyrrolidine-2-carboxamide]
